Assay results reported in patent US12103919B2, “3-(5-oxy)-1-oxoisoindolin-2-yl)piperidine-2,6-dione derivatives and uses thereof” (NOVARTIS AG, priority 2021, dated 2024).
Like-named read-outs stand apart in the source and are kept apart here.

Molecular target: T1, WIZ (Homo sapiens, UniProt O95785+Q96SW2)
T1 construct: expressed in transfected cells
Assay: Quantification of WIZ protein levels in HiBit tag fusion protein assay (293T cells)
Type: cell-based
Parameters: Dmax: dose or concentration left out as unconfirmed
Conditions: for remaining activity at 25 µM / Dmax at 25 µM / Dmax: HEK-293T; for remaining activity at 25 µM: read-out: WIZ Amax; for Dmax at 25 µM: 100 − Amax; for Dmax at 25 µM / Dmax: read-out: % degradation of WIZ (100 − Amax); for DC50: WIZ HiBit assay in 293T cells, about 18 hours, 10-point 5-fold dilution, top 25 μM, read-out: WIZ AC50
Procedure: The HiBit system from Promega was used to develop high-throughput and quantitative assays to measure changes in WIZ protein levels in response to compounds. The HiBit tag was derived from a split Nanoluciferase and has the following protein sequence: […] (SEQ ID NO: 1). The complementary fragment of Nanoluciferase (known as LgBit, from Promega), was added to the HiBit tag to form an active Nanoluciferase enzyme whose activity can be precisely measured. In this way, the levels of a fusion protein with the HiBit tag can be quantified in cell lysates.
Lentiviral vectors, based on the Invitrogen™ pLenti6.2/V5 DEST backbone were constructed that places the HiBit tag upstream of WIZ and expressed the fusion protein from an HSVTK promotor.
To ensure moderate and consistent expression of the HiBit-WIZ fusion protein across all cells in the population, stable cell lines were constructed from cells harboring a single copy of the construct. Lentivirus packaged with the constructs were made using the ViraPowerTMkit from Invitrogen™. 293T cells from ATCC (Catalog number: CRL-3216), were infected with the virus at low multiplicity of infection and selected by 5 μg/mL blasticidin in culture media for 2 weeks.
The levels of HiBit-WIZ tagged fusion proteins in compound-treated cell lines were measured as follows:
On day 1, cells were diluted to 1.0×10^6 cells/ml in normal growth medium. 20 μL of cell suspension were plated in each well of a solid white 384-well plate. Plates were incubated overnight in a 37° C. and 5% CO2 humidified tissue culture incubator.
On day 2, serial dilutions of compounds were made in 384-well plates. Compound plates were set up with DMSO in columns 1, 2, 23, 24, and 10-point compound dilution series in column 3-12 and column 13-22. 10 mM stock solution of compound were placed into column 3 or 13 and a 1:5 serial dilution was carried out until there was a 10-point dilution series per compound. 50 nL of diluted compounds were transferred into the plated cells by Echo® (Labcyte) acoustic transfer. The highest concentration of compound was 25 μM. Plates were incubated overnight (about 18 hours) in a 37° C. and 5% CO2 humidified tissue culture incubator.
On day 3, plates were removed from the incubator and allowed to equilibrate at room temperature for 60 minutes. HiBit substrate (Nano-Glo® HiBit Lytic Detection System, Promega Catalogue number: N3050) was added as described by the manufacturers protocols. Plates were incubated at room temperature for 30 minutes and luminescence was read using an EnVision® reader (PerkinElmer®). Data was analyzed and visualized using the Spotfire® software package.
WIZ Amax reflects the DMSO-normalized, curve-fitted percentage of WIZ-HiBit remaining at 25 uM. It was calculated by normalizing DMSO controls to 100%, parametric curve fitting of the dose response data (10-point, 5-fold), followed by calculation of response at 25 uM using the fitted equation.

[1] = DMSO-normalized, curve-fitted percentage of WIZ-HiBit remaining at 25 uM

T1 sequence (O95785 whole entry): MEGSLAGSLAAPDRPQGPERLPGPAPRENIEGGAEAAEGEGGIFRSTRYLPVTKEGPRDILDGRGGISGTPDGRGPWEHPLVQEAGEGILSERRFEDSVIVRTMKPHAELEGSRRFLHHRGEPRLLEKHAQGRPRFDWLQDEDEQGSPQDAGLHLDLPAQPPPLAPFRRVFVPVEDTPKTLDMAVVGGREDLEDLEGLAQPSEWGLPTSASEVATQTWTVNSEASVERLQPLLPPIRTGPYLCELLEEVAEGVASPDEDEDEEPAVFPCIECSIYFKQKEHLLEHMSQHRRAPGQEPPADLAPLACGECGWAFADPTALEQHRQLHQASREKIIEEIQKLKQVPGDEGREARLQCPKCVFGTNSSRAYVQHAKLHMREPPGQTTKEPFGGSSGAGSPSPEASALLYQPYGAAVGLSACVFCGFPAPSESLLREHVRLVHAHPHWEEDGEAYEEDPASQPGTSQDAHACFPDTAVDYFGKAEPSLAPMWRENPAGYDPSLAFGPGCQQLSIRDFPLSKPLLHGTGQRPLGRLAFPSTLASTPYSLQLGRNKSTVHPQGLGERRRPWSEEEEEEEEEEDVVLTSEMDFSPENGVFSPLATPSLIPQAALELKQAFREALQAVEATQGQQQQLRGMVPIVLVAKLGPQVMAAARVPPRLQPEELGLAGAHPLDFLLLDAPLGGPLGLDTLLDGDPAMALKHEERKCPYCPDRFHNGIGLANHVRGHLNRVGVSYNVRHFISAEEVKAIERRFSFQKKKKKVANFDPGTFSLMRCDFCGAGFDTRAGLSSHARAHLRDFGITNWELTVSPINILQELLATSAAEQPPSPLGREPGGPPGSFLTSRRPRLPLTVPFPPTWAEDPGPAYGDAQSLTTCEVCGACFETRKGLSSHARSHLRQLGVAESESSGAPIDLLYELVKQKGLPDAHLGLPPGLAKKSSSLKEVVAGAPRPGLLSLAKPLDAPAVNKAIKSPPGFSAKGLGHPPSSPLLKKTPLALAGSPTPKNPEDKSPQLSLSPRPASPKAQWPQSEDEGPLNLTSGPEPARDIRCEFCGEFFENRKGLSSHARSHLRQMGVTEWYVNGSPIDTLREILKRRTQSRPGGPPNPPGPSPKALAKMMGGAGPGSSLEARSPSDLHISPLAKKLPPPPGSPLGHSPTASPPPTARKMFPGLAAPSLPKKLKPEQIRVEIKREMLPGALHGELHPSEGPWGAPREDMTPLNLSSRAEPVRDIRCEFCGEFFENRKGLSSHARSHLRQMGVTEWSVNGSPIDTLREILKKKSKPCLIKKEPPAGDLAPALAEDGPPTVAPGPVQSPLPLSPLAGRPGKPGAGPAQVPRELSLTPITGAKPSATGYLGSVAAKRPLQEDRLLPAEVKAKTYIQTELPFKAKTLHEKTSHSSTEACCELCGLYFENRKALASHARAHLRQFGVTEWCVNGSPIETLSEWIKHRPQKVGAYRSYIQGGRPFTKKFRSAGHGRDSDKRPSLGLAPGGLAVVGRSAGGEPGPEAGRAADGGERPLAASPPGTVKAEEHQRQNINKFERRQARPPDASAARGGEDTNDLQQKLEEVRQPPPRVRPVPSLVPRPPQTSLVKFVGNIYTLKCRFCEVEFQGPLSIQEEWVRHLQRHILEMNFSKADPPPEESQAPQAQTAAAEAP
T1 sequence (Q96SW2 whole entry): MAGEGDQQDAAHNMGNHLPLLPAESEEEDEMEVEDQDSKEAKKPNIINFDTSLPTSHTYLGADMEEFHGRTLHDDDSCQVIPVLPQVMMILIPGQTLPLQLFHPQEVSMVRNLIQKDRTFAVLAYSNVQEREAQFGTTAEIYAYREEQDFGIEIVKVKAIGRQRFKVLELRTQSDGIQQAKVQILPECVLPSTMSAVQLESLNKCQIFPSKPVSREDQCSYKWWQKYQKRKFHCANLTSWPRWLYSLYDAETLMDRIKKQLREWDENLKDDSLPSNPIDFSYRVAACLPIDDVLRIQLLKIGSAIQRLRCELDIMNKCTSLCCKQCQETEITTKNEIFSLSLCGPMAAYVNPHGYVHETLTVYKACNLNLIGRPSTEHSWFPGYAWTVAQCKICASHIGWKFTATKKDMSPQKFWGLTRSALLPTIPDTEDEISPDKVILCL
T1 sequence (Q16531 whole entry partner): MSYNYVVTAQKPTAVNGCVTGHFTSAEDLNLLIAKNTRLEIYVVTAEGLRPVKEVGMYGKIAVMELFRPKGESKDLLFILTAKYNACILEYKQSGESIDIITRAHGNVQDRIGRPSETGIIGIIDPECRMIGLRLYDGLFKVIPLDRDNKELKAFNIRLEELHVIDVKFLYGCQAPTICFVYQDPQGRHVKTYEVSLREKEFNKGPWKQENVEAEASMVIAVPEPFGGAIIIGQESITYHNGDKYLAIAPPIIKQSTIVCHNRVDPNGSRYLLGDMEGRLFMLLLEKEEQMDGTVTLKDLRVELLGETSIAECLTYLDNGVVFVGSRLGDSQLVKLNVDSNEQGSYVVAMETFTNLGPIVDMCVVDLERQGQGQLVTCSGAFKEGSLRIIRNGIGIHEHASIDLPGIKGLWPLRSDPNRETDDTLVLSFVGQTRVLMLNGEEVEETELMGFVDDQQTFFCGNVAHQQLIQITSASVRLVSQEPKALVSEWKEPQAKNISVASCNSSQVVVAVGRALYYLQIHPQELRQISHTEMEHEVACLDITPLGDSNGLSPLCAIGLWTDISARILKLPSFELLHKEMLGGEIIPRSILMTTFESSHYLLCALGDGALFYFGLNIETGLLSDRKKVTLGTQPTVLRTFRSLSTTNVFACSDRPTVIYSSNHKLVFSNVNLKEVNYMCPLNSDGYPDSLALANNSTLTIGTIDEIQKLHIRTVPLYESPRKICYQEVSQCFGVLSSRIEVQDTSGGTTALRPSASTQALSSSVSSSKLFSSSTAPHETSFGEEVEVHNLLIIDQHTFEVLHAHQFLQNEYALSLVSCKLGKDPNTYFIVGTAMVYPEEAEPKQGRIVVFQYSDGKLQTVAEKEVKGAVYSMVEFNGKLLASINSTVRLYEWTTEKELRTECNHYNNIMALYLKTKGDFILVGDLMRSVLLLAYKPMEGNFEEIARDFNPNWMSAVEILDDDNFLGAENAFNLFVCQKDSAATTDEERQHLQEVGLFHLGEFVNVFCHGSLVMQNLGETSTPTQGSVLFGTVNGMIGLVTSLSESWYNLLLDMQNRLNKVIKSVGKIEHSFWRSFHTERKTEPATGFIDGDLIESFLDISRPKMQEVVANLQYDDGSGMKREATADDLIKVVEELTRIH

| remaining activity at 25 µM [1] [%] | Dmax at 25 µM [%] | DC50 [nM] | Structure (SMILES) | Dmax [%] | remaining activity at 25 µM [%] |
| --- | --- | --- | --- | --- | --- |
| 50.2 | 49.8 | 7.5 | O=C1CCC(N2Cc3cc(O[C@@H]4CCCN(CC#CC5CC5)C4)ccc3C2=O)C(=O)N1 (stereo partly drawn) [Example 25, 3-(5-(((R)-1-(3-cyclopropylprop-2-yn-1-yl)piperidin-3-yl)oxy)-1-oxoisoindolin-2-yl)piperidine-2,6-dione] | – | – |
| 58.9 | 41.1 | 21 | CCO[C@H]1C[C@@H](N2CCC[C@@H](Oc3ccc4c(c3)CN(C3CCC(=O)NC3=O)C4=O)C2)C1 (stereo partly drawn) [Example 26, 3-(5-(((R)-1-((1s,3S)-3-ethoxycyclobutyl)piperidin-3-yl)oxy)-1-oxoisoindolin-2-yl)piperidine-2,6-dione] | – | – |
| 60.3 | 39.7 | 130 | CO[C@H]1C[C@H](CN2CCC[C@@H](Oc3ccc4c(c3)CN(C3CCC(=O)NC3=O)C4=O)C2)C1 (stereo partly drawn) [Example 27, 3-(5-(((R)-1-(((1r,3R)-3-methoxycyclobutyl)methyl)piperidin-3-yl)oxy)-1-oxoisoindolin-2-yl)piperidine-2,6-dione] | – | – |
| 67.1 | 32.9 | 84 | O=C1CCC(N2Cc3cc(O[C@@H]4CCCN(C5CC6(CCOCC6)C5)C4)ccc3C2=O)C(=O)N1 (stereo partly drawn) [Example 28, 3-(5-(((R)-1-(7-oxaspiro[3.5]nonan-2-yl)piperidin-3-yl)oxy)-1-oxoisoindolin-2-yl)piperidine-2,6-dione] | – | – |
| 70.8 | 29.2 | 79 | CO[C@H]1CC[C@H](CN2CCC[C@@H](Oc3ccc4c(c3)CN(C3CCC(=O)NC3=O)C4=O)C2)CC1 (stereo partly drawn) [Example 30, 3-(5-(((R)-1-(((1r,4R)-4-methoxycyclohexyl)methyl)piperidin-3-yl)oxy)-1-oxoisoindolin-2-yl)piperidine-2,6-dione] | – | – |
| 31.4 | 68.6 | 8.9 | C=CCCN1CCC[C@@H](Oc2ccc3c(c2)CN(C2CCC(=O)NC2=O)C3=O)C1 (stereo partly drawn) [Example 31, 3-(5-(((R)-1-(but-3-en-1-yl)piperidin-3-yl)oxy)-1-oxoisoindolin-2-yl)piperidine-2,6-dione] | – | – |
| 19.2 | 80.8 | 1.7 | CC[C@@H](C)N1CCC[C@@H](Oc2ccc3c(c2)CN(C2CCC(=O)NC2=O)C3=O)C1 (stereo partly drawn) [Example 32, 3-(5-(((R)-1-((R)-sec-butyl)piperidin-3-yl)oxy)-1-oxoisoindolin-2-yl)piperidine-2,6-dione] | – | – |
| 18.6 | 81.4 | 1.5 | CC[C@H](C)N1CCC[C@@H](Oc2ccc3c(c2)CN(C2CCC(=O)NC2=O)C3=O)C1 (stereo partly drawn) [Example 33, 3-(5-(((R)-1-((S)-sec-butyl)piperidin-3-yl)oxy)-1-oxoisoindolin-2-yl)piperidine-2,6-dione] | – | – |
| 35.6 | 64.3 | 25 | CC(C)CN1CCCC[C@@H](Oc2ccc3c(c2)CN(C2CCC(=O)NC2=O)C3=O)C1 (stereo partly drawn) [Example 38, 3-(5-(((R)-1-isobutylazepan-3-yl)oxy)-1-oxoisoindolin-2-yl)piperidine-2,6-dione] | – | – |
| 73.5 | 26.5 | 770 | CCN1CC[C@H](Oc2ccc3c(c2)CN(C2CCC(=O)NC2=O)C3=O)C1 (stereo partly drawn) [Example 40, 3-(5-(((S)-1-ethylpyrrolidin-3-yl)oxy)-1-oxoisoindolin-2-yl)piperidine-2,6-dione] | – | – |
| 22.9 | 77.1 | 3.6 | O=C1CCC(N2Cc3cc(O[C@@H]4CCCN(C5CCCC5)C4)ccc3C2=O)C(=O)N1 (stereo partly drawn) [Example 42, 3-(5-(((R)-1-cyclopentylpiperidin-3-yl)oxy)-1-oxoisoindolin-2-yl)piperidine-2,6-dione] | – | – |
| 28.1 | 71.9 | 3.7 | O=C1CCC(N2Cc3cc(O[C@@H]4CCCN(C5CCCCC5)C4)ccc3C2=O)C(=O)N1 (stereo partly drawn) [Example 43, 3-(5-(((R)-1-cyclohexylpiperidin-3-yl)oxy)-1-oxoisoindolin-2-yl)piperidine-2,6-dione] | – | – |
| 16.9 | 83.1 | 11.2 | CC(C)N1C[C@H](O)C[C@@H](Oc2ccc3c(c2)CN(C2CCC(=O)NC2=O)C3=O)C1 (stereo partly drawn) [Example 67, 3-(5-(((3R,5R)-5-hydroxy-1-isopropylpiperidin-3-yl)oxy)-1-oxoisoindolin-2-yl)piperidine-2,6-dione] | – | – |
| 105 | – | > 25000 | CCO[C@@H]1C[C@@H](Oc2ccc3c(c2)CN(C2CCC(=O)NC2=O)C3=O)CN(C(=O)NC)C1 (stereo partly drawn) [Example 68, (3R,5R)-3-((2-(2,6-dioxopiperidin-3-yl)-1-oxoisoindolin-5-yl)oxy)-5-ethoxy-N-methylpiperidine-1-carboxamide] | – | – |
| 106 | – | > 25000 | CCOC(=O)N1C[C@H](OCC)C[C@@H](Oc2ccc3c(c2)CN(C2CCC(=O)NC2=O)C3=O)C1 (stereo partly drawn) [Example 69, ethyl (3R,5R)-3-((2-(2,6-dioxopiperidin-3-yl)-1-oxoisoindolin-5-yl)oxy)-5-ethoxypiperidine-1-carboxylate] | – | – |
| 107 | – | > 25000 | CCO[C@@H]1C[C@@H](Oc2ccc3c(c2)CN(C2CCC(=O)NC2=O)C3=O)CN(C(C)=O)C1 (stereo partly drawn) [Example 70, 3-(5-(((3R,5R)-1-acetyl-5-ethoxypiperidin-3-yl)oxy)-1-oxoisoindolin-2-yl)piperidine-2,6-dione] | – | – |

| Structure (SMILES) | remaining activity at 25 µM [1] [%] | Dmax at 25 µM [%] | DC50 [nM] | Dmax [%] | remaining activity at 25 µM [%] |
| --- | --- | --- | --- | --- | --- |
| CCN1CCCC[C@@H](Oc2ccc3c(c2)CN(C2CCC(=O)NC2=O)C3=O)C1 (stereo partly drawn) [Example 36, 3-(5-(((R)-1-ethylazepan-3-yl)oxy)-1-oxoisoindolin-2-yl)piperidine-2,6-dione] | – | – | 57 | 67.5 | 32.5 |
| CCN1CCCC[C@H](Oc2ccc3c(c2)CN(C2CCC(=O)NC2=O)C3=O)C1 (stereo partly drawn) [Example 37, 3-(5-(((S)-1-ethylazepan-3-yl)oxy)-1-oxoisoindolin-2-yl)piperidine-2,6-dione] | – | – | > 25000 | – | 103 |
| CCN1CC[C@@H](Oc2ccc3c(c2)CN(C2CCC(=O)NC2=O)C3=O)C1 (stereo partly drawn) [Example 39, 3-(5-(((R)-1-ethylpyrrolidin-3-yl)oxy)-1-oxoisoindolin-2-yl)piperidine-2,6-dione] | – | – | 210 | 52.1 | 47.9 |
| CCN1C[C@@H](F)C[C@@H](Oc2ccc3c(c2)CN(C2CCC(=O)NC2=O)C3=O)C1 (stereo partly drawn) [Example 59, 3-(5-(((3R,5S)-1-ethyl-5-fluoropiperidin-3-yl)oxy)-1-oxoisoindolin-2-yl)piperidine-2,6-dione] | – | – | 2.6 | 64.4 | 35.6 |
| CCN1C[C@H](F)C[C@@H](Oc2ccc3c(c2)CN(C2CCC(=O)NC2=O)C3=O)C1 (stereo partly drawn) [Example 60, 3-(5-(((3R,5R)-1-ethyl-5-fluoropiperidin-3-yl)oxy)-1-oxoisoindolin-2-yl)piperidine-2,6-dione] | – | – | 78 | 37 | 63 |
| CCO[C@@H]1C[C@@H](Oc2ccc3c(c2)CN(C2CCC(=O)NC2=O)C3=O)CN(CC)C1 (stereo partly drawn) [Example 63, 3-(5-(((3R,5R)-5-ethoxy-1-ethylpiperidin-3-yl)oxy)-1-oxoisoindolin-2-yl)piperidine-2,6-dione] | – | – | 0.12 | 79.5 | 20.5 |
| CCN1C[C@H](OC)C[C@@H](Oc2ccc3c(c2)CN(C2CCC(=O)NC2=O)C3=O)C1 (stereo partly drawn) [Example 64, 3-(5-(((3R,5R)-1-ethyl-5-methoxypiperidin-3-yl)oxy)-1-oxoisoindolin-2-yl)piperidine-2,6-dione] | – | – | 6.3 | 79.5 | 20.6 |
| CCN1C[C@H](O)C[C@@H](Oc2ccc3c(c2)CN(C2CCC(=O)NC2=O)C3=O)C1 (stereo partly drawn) [Example 66, 3-(5-(((3R,5R)-1-ethyl-5-hydroxypiperidin-3-yl)oxy)-1-oxoisoindolin-2-yl)piperidine-2,6-dione] | 19.9 | 80.1 | 33.3 | – | – |
